Test results published in patent US20200016086A1, “Nanoparticulate Materials and Methods for Targeting Iron Acquisition and Metabolism for Treating Bacterial Infections” (KENT STATE UNIVERSITY, priority 2017, published 2020).

Assays:
Staphylococcus aureus = assay: Bacterial cytotoxicity / growth inhibition of S. aureus in TSB medium (OD600); type: cell-based; settings: concentration range of 10 μM to 400 μM
[1] = type: physicochemical; settings: buffer
Protocol: The kinetics of Fe^2+ removal was followed by measuring the decrease of Fe^2+ ion concentration in aqueous solution where the dialysis bag containing the PVP-coated CaPB NPs was immersed. The simultaneous increase of Ca^2+ ion concentration in the same solution was also determined quantitatively by AAS to verify the kinetics (FIG. 5b).

For `[Ca+2].[Cl-].[Cl-]` [CaCl2], the “effect on growth of S. aureus” value (Staphylococcus aureus) was “no effect on growth”.
For KCa[Fe^III(CN)6].n H2O [CaPB^III NPs], the “half-life T1/2 of Fe^2+ removal” value [1] was 55 min.
